# Data from US10703736B2, “Configurational stereoisomer of bromadiolone, composition and rodenticide bait comprising same, and method for controlling target rodent pests” (priority 2015, dated 2020).
# Entries after “also recorded” stand apart in the source; their conditions may differ.
# Assays:
# [1] = type: in vivo, rat; settings: Sprague-Dawley rats, mixture D1,2 56% / D3,4 44%, about 13 mg bromadiolone per kg per os, liver on D1, D3, D7; FIG. 2
# Protocol: (§1) About 0.525 g (+0.025 g) of rat liver is weighed out accurately and placed in a 50 mL polypropylene tube. 10 mL of acetone are added and the suspension is homogenized using an Ultra-Turrax® homogenizer/disperser for a time of about 30 seconds. The homogenizer/disperser shaft is rinsed with hot water and then twice with 20 mL of acetone in a polypropylene tube. The homogenate is centrifuged for 5 minutes at a centrifugation speed of 3000 rpm (revolutions per minute). The supernatant is collected and transferred into a test tube. The sample is subjected to evaporation under a stream of nitrogen (N2) at a temperature of 40° C. so as to form a dry extract.
# (§2) 1 mL of acetonitrile is added to the tube containing the dry extract so as to dissolve it. The acetonitrile solution is washed twice successively with 1 mL of hexane. […]
# On D1 (D+1), D3 (D+3) and D7 (D+7) after tube feeding, four rats anaesthetized beforehand with isoflurane are euthanized, the liver of the euthanized rats is removed, the bromadiolone is then extracted from the liver and the amount of each of the configurational stereoisomers of bromadiolone is assayed by high-pressure liquid chromatography analysis on a chiral column as described above. The area under the peaks of the chromatogram obtained is measured and each configurational stereoisomer of bromadiolone is quantified by comparison with a calibration curve.
# [2] = test system: male laboratory rats (OFA, Sprague-Dawley 200 g); assay: Anticoagulant power of each configurational stereoisomer: coagulation time (Quick time) of plasma of tube-fed rats; type: in vivo; settings: 1.5 mg of enantiomer per kilogram of rat by tube feeding on D0; blood on D1, D3, D7, D14; FIG. 3
# Protocol: The following are administered to male laboratory rats (OFA, Sprague-Dawley 200 g) by tube feeding on D0: a composition comprising enantiomer E1 in a proportion of 1.5 mg of said enantiomer E1 per kilogram of rat; or a composition comprising enantiomer E2 in a proportion of 1.5 mg of said enantiomer E2 per kilogram of rat; or a composition comprising enantiomer E3 in a proportion of 1.5 mg of said enantiomer E3 per kilogram of rat; or a composition comprising enantiomer E4 in a proportion of 1.5 mg of said enantiomer E4 per kilogram of rat.
# On these rats, blood is collected on D1, D3, D7 and D14 and measurement of the coagulation time (Quick time, expressed in seconds) of the plasma is performed using the “Neoplastine CI Determination of Prothrombin Time” kit (Diagnostica Stago, Asnibre, France) by measurement on a Thrombotimer Option 2 Plus machine (Behnk Electronik, Norderstedt, Germany).
# [3] = Hepatic persistence of each configurational stereoisomer in rats tube-fed with a single stereoisomer; type: in vivo, rat; settings: liver of rats tube-fed with the single enantiomer at 1.5 mg per kilogram; FIG. 4
# Protocol: as §1, §2
# The liver of the rats treated above is removed for the purposes of comparative analysis of the anticoagulant power of the configurational stereoisomers of bromadiolone, the bromadiolone is then extracted from the liver and the amount of each of the configurational stereoisomers of bromadiolone is assayed by high-pressure liquid chromatography analysis on a chiral column as described above. The area under the peaks of the chromatogram obtained is measured and each configurational stereoisomer of bromadiolone is quantified by comparison with a calibration curve. […]
SMILES,persistence in rat liver (hepatic concentration) [1],"anticoagulant effect / anticoagulant activity (coagulation time, Quick time) [2]",hepatic persistence of each enantiomer [3]
"O=c1oc2ccccc2c(O)c1C(CC(O)c1ccc(-c2ccc(Br)cc2)cc1)c1ccccc1 (single isomer, unassigned) [diastereoisomer D1,2, 3-[3-(4′-bromo[1,1′-biphenyl]-4-yl)-3-hydroxy-1-phenylpropyl]-4-hydroxy-2H-1-benzopyran-2-one]",the more persistent in the liver of target rodents,–,–
"O=c1oc2ccccc2c(O)c1C(CC(O)c1ccc(-c2ccc(Br)cc2)cc1)c1ccccc1 (single isomer, unassigned) [enantiomer E1, 3-[3-(4′-bromo[1,1′-biphenyl]-4-yl)-3-hydroxy-1-phenylpropyl]-4-hydroxy-2H-1-benzopyran-2-one]",longest persistence in rat liver of the four enantiomers,"sufficient to maintain an anticoagulant effect up to D7; also recorded: higher anticoagulant activity than the anticoagulant activity of said enantiomer E2 and also higher than the anticoagulant activities of said two enantiomers of said diastereoisomer D3,4","highest hepatic persistence among the bromadiolone enantiomers; also recorded: higher than the persistence in the liver of target rodent pests of said enantiomer E2 and higher than the persistence in the liver of target rodent pests of each enantiomer of said diastereoisomer D3,4"
